Reference: the NIST ThermoML archive (doi:10.1016/j.jct.2008.02.004)
Numbers after ± are expanded uncertainties.

Experiment: molar enthalpy of vaporization or sublimation
Settings: 298.15 K; Liquid; calvet microcalorimetry

Row | molar enthalpy [kcal/mol] | SMILES
1 | 13.1 ± 0.526 | O=Cc1cccs1 [2-thiophenealdehyde]
2 | 12.6 ± 0.574 | O=Cc1ccsc1 [3-formylthiophene]
3 | 13.4 ± 0.574 | Cc1ccc(C=O)s1 [5-methyl-2-thiophenecarbaldehyde]

More lines, now with the values behind:

Row | SMILES | molar enthalpy [kcal/mol]
4 | CCc1ccc(C=O)s1 [2-thiophenecarboxaldehyde, 5-ethyl-] | 14.9 ± 0.621
5 | Cc1ccsc1C=O [3-methyl-2-thiophenecarboxaldehyde] | 13.8 ± 0.621
